Results from PubChem BioAssay (NCI).
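Step 1: Grow cells in 96-well plates. Step 2: Expose to compound for 48 hours at 5 concentrations. Step 3: Interpolate endpoints linearly; if unreached, use highest concentration. At the GI50, growth is halved. TGI marks complete inhibition of growth.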

Key:
Test in all cases: NCI anticancer screen, dose series, 48 h
CCRF-CEM leukemia = tested on: CCRF-CEM leukemia
UACC-62 melanoma = tested on: UACC-62 melanoma
SK-MEL-2 melanoma = tested on: SK-MEL-2 melanoma
NCI-H23 lung = tested on: NCI-H23 lung
OVCAR-5 ovarian = tested on: OVCAR-5 ovarian
MDA-MB-231 breast = tested on: MDA-MB-231 breast
ACHN renal = tested on: ACHN renal
BT-549 breast = tested on: BT-549 breast
COLO 205 colon = tested on: COLO 205 colon
MDA-MB-435 = tested on: MDA-MB-435

| SMILES | GI50 (CCRF-CEM leukemia) [µM] | TGI (CCRF-CEM leukemia) [µM] | GI50 (UACC-62 melanoma) [µM] | TGI (UACC-62 melanoma) [µM] | GI50 (SK-MEL-2 melanoma) [µM] | TGI (SK-MEL-2 melanoma) [µM] | GI50 (NCI-H23 lung) [µM] | TGI (NCI-H23 lung) [µM] | GI50 (OVCAR-5 ovarian) [µM] | TGI (OVCAR-5 ovarian) [µM] | GI50 (MDA-MB-231 breast) [µM] | TGI (MDA-MB-231 breast) [µM] | GI50 (ACHN renal) [µM] | TGI (ACHN renal) [µM] | GI50 (BT-549 breast) [µM] | TGI (BT-549 breast) [µM] | GI50 (COLO 205 colon) [µM] | TGI (COLO 205 colon) [µM] | GI50 (MDA-MB-435) [µM] | TGI (MDA-MB-435) [µM] |
| --- | --- | --- | --- | --- | --- | --- | --- | --- | --- | --- | --- | --- | --- | --- | --- | --- | --- | --- | --- | --- |
| C=C1C(=O)O[C@H]2[C@H]1CC/C(CNC(=O)/C=C/c1ccccc1)=C\CC[C@@]1(C)O[C@@H]21 | 0.342 | 1.3 | 1.37 | 2.76 | 1.49 | 3.41 | 1.73 | 3.9 | 1.61 | 4.27 | 1.59 | 3.08 | 0.755 | 2.03 | 1.46 | 3.47 | 0.966 | 2.6 | 1.35 | 6.41 |
| Cc1c2ccncc2c(C)c2c1c1cc(CO)ccc1n2C | 0.545 | 4.18 | 0.287 | 1.76 | 0.819 | 2.54 | 0.429 | 2.66 | 0.267 | 0.984 | 0.456 | 2.96 | 0.362 | 9.39 | 1.73 | 7.84 | 0.373 | 1.94 | 0.467 | 3.74 |
| O=[N+]([O-])c1ccc2c(Nc3ccccc3-c3ccccc3Nc3c4ccccc4nc4cc([N+](=O)[O-])ccc34)c3ccccc3nc2c1 |  | 37.6 |  | 11.5 |  | 6.55 |  | 34.7 |  | 56.8 |  | 6.38 |  | 49 |  | 7.74 |  | 9.53 |  | 3.8 |
| C=CCCCOC1[C@H](OCc2ccccc2)C(OCc2ccccc2)C(OC)O[C@@H]1CNC(=O)c1cccc(I)c1 (stereo partly drawn) | 3.55 | > 100 | 3.8 | > 100 | 48.1 | > 100 | 33.6 | > 100 | > 100 | > 100 | 8.34 | > 100 | 5.76 | > 100 | 8.79 | > 100 | 5.02 | > 100 | 5.31 | > 100 |
| OCc1ccc(N2CCCC2)cc1Cl | 31.3 | > 100 | 0.879 | 4.28 | 12.9 | 51.5 | 27.5 | > 100 | 0.148 | 0.498 | > 79.4 | > 100 | 29.2 | > 75.3 | 32 | > 100 | 2.01 | 5.11 | > 100 | > 100 |
| COc1ccc2c(c1)/C(=C\c1c[nH]c3ccc(OC)cc13)C(=O)N2 | 2.84 | 9.33 | 2.76 | 11.3 | 2.3 | 6.27 | 4.46 | 21 | 3.43 | 13.2 | 1.97 | 6.32 | 2.93 | 12.4 | 2.31 | 9.1 | 2.89 | 9.84 | 0.877 | 5.17 |
| O=C(NN1C(=O)CSC1c1ccc(F)cc1)C(O)c1ccccc1 (stereo not drawn) | > 100 | > 100 | 80.2 | > 100 | > 100 | > 100 |  |  | > 100 | > 100 | 67.6 | > 100 | 91.5 | > 100 | > 100 | > 100 | > 100 | > 100 | > 100 | > 100 |
